According to the supplement of paper PMC8882468:
Several values for one entry are separate records, joined by “and”; a condition that tells them apart may be missing. Identical values can stand only once.

Columns and labels:
Assay in all cases: CTG-3D luminescence at 96 h relative to day-0 seeding control (ratio to day 0); higher = more growth / less cytotoxicity; PDxO 3D drug screen (set 2), 96 h, CTG-3D normalised to day-0 seeding control.
[1] = tested on: HCI-001 (organoid from a triple-negative breast cancer xenograft)
[2] = tested on: HCI-005.E2 (organoid from a breast cancer xenograft with a HER2-positive history)
[3] = tested on: HCI-010 (organoid from a breast cancer xenograft)
[4] = tested on: HCI-016 (organoid from a triple-negative breast cancer xenograft)
[5] = tested on: HCI-019 (organoid from a triple-negative breast cancer xenograft)
[6] = tested on: MDA-MB-231

CCOc1ccn(-c2ccc(F)cc2)c(=O)c1C(=O)Nc1ccc(Oc2ccnc(N)c2Cl)c(F)c1 [ASLAN002]
CTG-3D luminescence at 96 h
Conditions	12.5 pM	0.00025 µM	0.005 µM	0.1 µM	1 µM	10 µM	100 µM	625 fM
[1], days in culture: 365	2.86	2.78	2.5	3.1	2.44	1.84	1.6	1.69
[1], days in culture: 397	1.79	2.1	2.38	1.93	2.27	2.43	1.01	1.87
[1], days in culture: 401	1.59	1.66	1.76	1.83	1.66	1.29	0.84	1.76
[3], days in culture: 79	1.78	1.68	1.94	2.05	1.8	1.55	0.742	1.97
[3], days in culture: 86	2.24	2.35	2.82	2.77	2.48	2.23	0.77	2.51
[3], days in culture: 102	1.1	1.26	1.21	1.48	1.41	1.14	0.252	0.941
[3], days in culture: 164	1.62	1.61	1.72	1.74	1.66	1.3	0.248	1.36
[4], days in culture: 305	1.62	3.6	3.65	4.35	2.71	1.97	2.68	3.43
[4], days in culture: 327	0.8	1.78	1.32	1.46	1.87	1.58	1.05	1.72
[4], days in culture: 341	1.97	1.78	2.09	2.6	1.97	2	0.676	2.26
[4], days in culture: 397	1.73	2.37	1.99	2.59	2.39	2.98	0.779	2.52
[5], days in culture: 173	2.03	1.61	1.52	3.51	1.6	1.16	1.12	1.28
[5], days in culture: 194	1.11	1.59	0.978	1.46	0.851	0.875	1.1	1.75
[5], days in culture: 215	1.3	0.756	1.22	1.28	2.09	0.724	0.591	1.91

CTG-3D luminescence at 96 h
Conditions	12.5 pM	0.00025 µM	0.005 µM	0.1 µM	1 µM	10 µM	100 µM	625 fM
[2]	1.72	2.16	2.37	2.74	2.59	2.35	1.45	2.25
[6]	5.15	5.18	5.26	5.15	5.49	4.89	3.8	5.36

CC(=O)O[C@@]12CO[C@@H]1C[C@H](O)[C@@]1(C)C(=O)[C@H](O)C3=C(C)[C@@H](OC(=O)[C@H](O)[C@@H](NC(=O)OC(C)(C)C)c4ccccc4)C[C@@](O)([C@@H](OC(=O)c4ccccc4)[C@H]21)C3(C)C [docetaxel]
CTG-3D luminescence at 96 h
Conditions	12.5 pM	0.00025 µM	0.005 µM	0.1 µM	1 µM	10 µM	100 µM	625 fM
[1], days in culture: 365	1.99	1.78	1.68	1.79	1.49	1.18	1.1	1.34
[1], days in culture: 397	1.11	1.7	1.28	1.67	1.72	1.72	0.311	0.889
[1], days in culture: 401	1	1.57	0.829	1.35	1.02	1.19	0.514	1.16
[3], days in culture: 79	1.26	1.41	1.14	0.967	0.815	0.987	0.000117	1.74
[3], days in culture: 86	2.16	2.35	2.01	0.907	0.734	0.847	0.00279	2.24
[3], days in culture: 102	1.2	0.987	0.747	0.491	0.519	0.375	0.00091	1.07
[3], days in culture: 164	1.68	1.45	1.1	0.611	0.719	0.646	0.00438	1.43
[4], days in culture: 305	1.51	1.9	1.03	1.42	0.985	0.955	0.0636	1.77
[4], days in culture: 327	0.628	0.252	0.393	0.838	0.432	0.497	0.0762	0.906
[4], days in culture: 341	1.18	1.18	0.786	0.962	0.862	0.954	0.11	1.59
[4], days in culture: 397	1.74	1.18	0.667	0.792	0.484	0.997	0.19	2.27
[5], days in culture: 173	1.24	0.84	0.655	1.38	0.99	0.699	0.368	0.768
[5], days in culture: 194	1.66	2.03	0.858	0.59	0.552	0.764	0.27	3.06
[5], days in culture: 215	1.52	0.972	0.281	0.399	0.342	0.484	0.0546	1.59

CTG-3D luminescence at 96 h
Conditions	12.5 pM	0.00025 µM	0.005 µM	0.1 µM	1 µM	10 µM	100 µM	625 fM
[2]	1.75	1.98	2.07	2.26	2.22	1.75	0.813	2.5
[6]	4.86 and 2.64	3.88 and 2.58	3.24 and 2.69	2.84 and 2.47	3.11 and 2.65	3.34 and 2.92	1.24 and 1.2	4.81 and 2.82

CO[C@H]1C[C@@H]2CC[C@@H](C)[C@@](O)(O2)C(=O)C(=O)N2CCCC[C@H]2C(=O)O[C@H]([C@H](C)C[C@@H]2CC[C@@H](OCCO)[C@H](OC)C2)CC(=O)[C@H](C)/C=C(\C)[C@@H](O)[C@@H](OC)C(=O)[C@H](C)C[C@H](C)/C=C/C=C/C=C/1C [everolimus]
CTG-3D luminescence at 96 h
Conditions	12.5 pM	0.00025 µM	0.005 µM	0.1 µM	1 µM	10 µM	100 µM	625 fM
[1], days in culture: 365	1.99	1.3	1.52	1.53	1.65	1.34	0.0033	1.24
[1], days in culture: 397	1.23	1.76	1.92	1.59	1.16	1.33	-0.000266	0.913
[1], days in culture: 401	1.21	1.26	1.27	1.07	1.1	1.27	-0.00223	1.41
[3], days in culture: 79	1.18	1.21	1.18	1.28	1.13	1.12	-0.00276	1.31
[3], days in culture: 86	1.76	1.9	1.53	1.19	0.809	0.648	-0.000872	2.35
[3], days in culture: 102	1.16	0.848	0.691	0.497	0.337	0.158	-0.000165	1.13
[3], days in culture: 164	1.53	1.42	1.25	0.906	0.778	0.581	0.000191	1.52
[4], days in culture: 305	1.91	2.37	1.91	2.63	1.49	1.46	-0.0112	3.94
[4], days in culture: 327	0.724	1	1.4	1.68	0.673	1.5	-0.00208	0.809
[4], days in culture: 341	1.86	1.39	1.69	1.34	1.18	1.47	-0.00301	2.31
[4], days in culture: 397	2.02	1.53	1.5	1.31	0.567	0.757	-0.000194	2.23
[5], days in culture: 173	1.57	1.31	1.21	1.38	1.1	0.954	0.000122	1.63
[5], days in culture: 194	1.27	0.886	1.15	1.13	1.33	0.725	-0.00106	1.7
[5], days in culture: 215	0.96	0.554	0.902	0.622	0.482	0.326	0.000571	1.76

CTG-3D luminescence at 96 h
Conditions	12.5 pM	0.00025 µM	0.005 µM	0.1 µM	1 µM	10 µM	100 µM	625 fM
[2]	1.05	1.43	1.45	1.18	0.769	0.653	-0.000603	1.6
[6]	5.2 and 4.8	5.04 and 4.75	4.83 and 4.91	4.27 and 4.36	3.79 and 3.62	3.5 and 2.66	-0.00539 and -0.00564	5.28 and 4.71

COc1cccc2c1C(=O)c1c(O)c3c(c(O)c1C2=O)C[C@@](O)(C(=O)CO)C[C@@H]3O[C@H]1C[C@H](N)[C@@H](O)[C@H](C)O1 [epirubicin]
CTG-3D luminescence at 96 h
Conditions	12.5 pM	0.00025 µM	0.005 µM	0.1 µM	1 µM	10 µM	100 µM	625 fM
[1], days in culture: 365	2.72	2.24	2.31	1.83	0.374	0.226	-0.00151	2.09
[1], days in culture: 397	1.49	2.3	1.7	1.3	0.405	0.197	-0.00311	1.83
[1], days in culture: 401	1.41	1.96	1.6	1.06	0.216	0.3	-0.00404	1.55
[3], days in culture: 79	1.82	1.96	2.1	0.453	0.114	0.0313	-0.00605	2.12
[3], days in culture: 86	1.93	2.45	2.56	0.972	0.179	0.0423	-0.00278	2.25
[3], days in culture: 102	1.1	1.22	1.01	0.19	0.064	0.0201	-0.000814	0.986
[3], days in culture: 164	1.68	1.75	1.67	0.67	0.214	0.0976	-0.00123	1.45
[4], days in culture: 305	2.91	3.05	3.17	1.79	0.0989	0.0325	-0.0142	3.33
[4], days in culture: 327	0.93	0.767	0.985	1.49	0.0556	0.0566	-0.00792	1.16
[4], days in culture: 341	2.05	1.72	2.11	0.986	0.0279	0.103	-0.00358	2.49
[4], days in culture: 397	2	1.81	1.7	0.704	0.0199	0.108	-0.000737	3
[5], days in culture: 173	2.56	0.82	0.796	0.682	0.176	0.0215	-0.00415	2.04
[5], days in culture: 194	1.08	1.73	0.897	0.514	0.126	0.00997	-0.00363	2.03
[5], days in culture: 215	1.08	1.32	1.32	0.384	0.205	0.0145	-0.000778	1.97

CTG-3D luminescence at 96 h
Conditions	12.5 pM	0.00025 µM	0.005 µM	0.1 µM	1 µM	10 µM	100 µM	625 fM
[2]	1.54	1.65	1.41	0.977	0.0317	0.00772	-0.000128	1.98
[6]	5.46 and 4.99	5.52 and 4.95	4.84 and 4.76	3.26 and 3.33	0.232 and 0.543	0.504 and 0.188	-0.0125 and -0.0119	5.48 and 5.03
